{"source": "paper PMC3750255", "about": "“Inhibition of Mycoplasma pneumoniae growth by FDA-approved anticancer and antiviral nucleoside and nucleobase analogs” (BMC Microbiology, 2013)", "key": {"Mpn TK": {"system": "Mpn TK", "assay": "TK activity in total protein extracts of Mpn cultured with TFT", "format": "cell-based, Mycoplasma pneumoniae", "conditions": "10 μM TFT, 70 hours culture", "protocol": "Total proteins were extracted from these cultures and used to determine the TK and TS activity.\nMpn wild type cells were cultured in the presence of [^3H]-dT and different concentrations of TFT. The cells were incubated at 37°C for 70 hours and harvested. The total uptake and incorporation of [^3H]-dT were analysed, and TK and TS activity were determined in total protein extracts.\nTo determine the effect of TFT on TK and TS activity, Mpn wild type cells were cultured in 75 cm^2 tissue culture flasks containing 50 ml medium, inoculated with 3 ml of stock culture (1 × 10^9 cfu/ml), in the presence of [^3H]-dT (1 μCi ml^-1) and different concentrations of TFT. After 70 hours at 37°C the cultures were harvested and divided to two aliquots, one was used to determine total uptake/metabolism of radiolabeled dT and total proteins were extracted from the other aliquot and used to measure TK and TS activity using [^3H]-dT and [5-^3H]-dUMP as substrates."}, "Ureaplasma TK [1]": {"target": "T1, Ureaplasma TK (Ureaplasma parvum serovar 3, UniProt Q9PPP5)", "T1 construct": "made in house", "T1 sequence (Q9PPP5 1-223)": "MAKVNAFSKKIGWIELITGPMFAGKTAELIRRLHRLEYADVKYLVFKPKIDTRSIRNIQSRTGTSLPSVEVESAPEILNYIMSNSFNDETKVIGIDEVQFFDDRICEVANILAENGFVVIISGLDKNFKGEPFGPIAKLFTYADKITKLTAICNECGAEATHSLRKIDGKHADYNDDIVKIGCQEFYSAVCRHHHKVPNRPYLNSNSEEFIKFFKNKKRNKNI", "assay": "Thymidine kinase inhibition with [3H]-dT as substrate", "format": "biochemical", "conditions": "10 μM tritium labelled thymidine", "protocol": "(§1) Thymidine kinase assay was performed using tritium labelled thymidine ([^3H]-dT) as substrate and various concentrations of the inhibitors essentially as previously described to determine the IC50 values of TFT and 5FdU."}, "human TK2 [2]": {"target": "T2, human TK2 (Homo sapiens, UniProt O00142)", "T2 construct": "made in house", "T2 sequence (O00142 34-265)": "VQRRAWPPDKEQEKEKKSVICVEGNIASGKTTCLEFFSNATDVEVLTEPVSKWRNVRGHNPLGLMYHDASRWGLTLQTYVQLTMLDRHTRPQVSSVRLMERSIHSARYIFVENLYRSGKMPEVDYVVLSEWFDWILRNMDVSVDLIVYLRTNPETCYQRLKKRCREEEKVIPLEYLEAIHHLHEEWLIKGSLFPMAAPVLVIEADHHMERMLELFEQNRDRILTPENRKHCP", "assay": "Thymidine kinase inhibition with [3H]-dT as substrate", "format": "biochemical", "conditions": "10 μM tritium labelled thymidine", "protocol": "as §1"}, "human TK1 [3]": {"target": "T3, human TK1 (Homo sapiens, UniProt P04183)", "T3 construct": "made in house", "T3 sequence (P04183 1-234)": "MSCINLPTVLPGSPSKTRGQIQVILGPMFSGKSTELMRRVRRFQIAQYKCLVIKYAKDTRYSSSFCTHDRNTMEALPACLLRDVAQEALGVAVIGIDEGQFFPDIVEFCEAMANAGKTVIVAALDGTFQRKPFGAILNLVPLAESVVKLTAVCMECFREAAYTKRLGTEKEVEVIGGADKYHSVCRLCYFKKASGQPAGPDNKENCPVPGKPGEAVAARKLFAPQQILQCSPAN", "assay": "Thymidine kinase inhibition with [3H]-dT as substrate", "format": "biochemical", "conditions": "10 μM tritium labelled thymidine", "protocol": "as §1"}, "Mpn wild type cells": {"system": "Mpn wild type cells", "assay": "Uptake and metabolism of tritium labelled natural nucleoside and nucleobases in the presence of analogs", "format": "cell-based, Mycoplasma pneumoniae", "protocol": "The cells were harvested and analyzed essentially as described. Analogs used were dipyridamole, 6-thioguanine (6-TG), trifluorothymidine (TFT), gemcitabine (dFdC) and 5-fluorodeoxyuridine (5FdU). Total uptake is the percent of radioactivity recovered in the cells divided by total radioactivity added to the growth medium. Percent of acid insoluble (radioactivity found in DNA and RNA) was also calculated. These experiments were done more than three times and data are given as mean ± SD."}, "Ureaplasma TK [4]": {"target": "T1, Ureaplasma TK", "assay": "TFT phosphorylation kinetics, phosphoryl transfer assay", "format": "biochemical", "conditions": "100 μM [γ-32P]-ATP", "protocol": "(§2) Figure 3 Substrate saturation curves of TFT with human TK2 (A), human TK1 (B), and Ureaplasma TK (C). Kinetic assays with TFT were performed by using [γ-^32P]-ATP as the labelled substrate at fixed concentration and variable concentrations of TFT. The reaction products were separated by thin layer chromatography, and quantified as described in the experimental procedures.\n(§3) Kinetic parameters for TFT were determined by using the phosphoryl transfer assays as previously described. Briefly, each reaction was performed in a total volume of 20 μl containing 50 mM Tris/HCl, pH 7.5, 0.5 mg/ml BSA, 5 mM DTT, 2 mM MgCl2, 15 mM NaF, variable concentrations of TFT, 0.1 mM [γ-^32P]-ATP, and 50 ng purified enzyme at 37°C for 20 min, and stopped by heating at 70°C for 2 min. After brief centrifugation, 1 μl supernatant was spotted onto a TLC plate (PEI-cellulose, Merck) and dried. The TLC plates were developed in isobutyric acid/ammonia/H2O (66:1:33). The reaction products were visualized and quantified by phosphoimaging analysis (Quantity One, Bio-Rad)."}, "human TK2 [5]": {"target": "T2, human TK2", "assay": "TFT phosphorylation kinetics, phosphoryl transfer assay", "format": "biochemical", "conditions": "100 μM [γ-32P]-ATP", "protocol": "as §2, §3"}, "human TK1 [6]": {"target": "T3, human TK1", "assay": "TFT phosphorylation kinetics, phosphoryl transfer assay", "format": "biochemical", "conditions": "100 μM [γ-32P]-ATP", "protocol": "as §2, §3"}, "[7]": {"conditions": "10 μM analog, 70 hours, 37°C, radioactivity in cells / total added"}, "[8]": {"conditions": "10 μM analog, 70 hours, acid insoluble fraction / total in cells"}}}
{"smiles": "O=c1[nH]c(=O)n([C@H]2C[C@H](O)[C@@H](CO)O2)cc1C(F)(F)F", "note": "[Trifluorothymidine (TFT), Trifluorothymidine]", "values": [{"measurement": "TK activity relative to controls", "setting": "Mpn TK", "value": "~ 3 times"}, {"measurement": "IC50", "setting": "Ureaplasma TK [1]", "value": "12 ± 4.2", "unit": "µM"}, {"measurement": "IC50", "setting": "human TK2 [2]", "value": "80 ± 5.6", "unit": "µM"}, {"measurement": "IC50", "setting": "human TK1 [3]", "value": "9.7 ± 3.2", "unit": "µM"}, {"measurement": "Stimulation of [3H]-dT uptake", "setting": "Mpn wild type cells; 10 μM analog versus control", "value": 2, "unit": "fold"}, {"measurement": "[3H]-Ade Total uptake", "setting": "Mpn wild type cells; [7]", "value": "0.43±0.01", "unit": "%"}, {"measurement": "[3H]-Gua Total uptake", "setting": "Mpn wild type cells; [7]", "value": "0.19±0.02", "unit": "%"}, {"measurement": "[3H]-Hx Total uptake", "setting": "Mpn wild type cells; [7]", "value": "0.011± 0.001", "unit": "%"}, {"measurement": "[3H]-Ura Total uptake", "setting": "Mpn wild type cells; [7]", "value": "0.11±0.002", "unit": "%"}, {"measurement": "[3H]-dT Total uptake", "setting": "Mpn wild type cells; [7]", "value": "18.2±0.6", "unit": "%"}, {"measurement": "[3H]-Ade Incorporation", "setting": "Mpn wild type cells; [8]", "value": "48±2", "unit": "%"}, {"measurement": "[3H]-Gua Incorporation", "setting": "Mpn wild type cells; [8]", "value": "85±4", "unit": "%"}, {"measurement": "[3H]-Hx Incorporation", "setting": "Mpn wild type cells; [8]", "value": "67±1", "unit": "%"}, {"measurement": "[3H]-Ura Incorporation", "setting": "Mpn wild type cells; [8]", "value": "27±0.2", "unit": "%"}, {"measurement": "[3H]-dT Incorporation", "setting": "Mpn wild type cells; [8]", "value": "97.4±0.5", "unit": "%"}, {"measurement": "kcat", "setting": "Ureaplasma TK [4]", "value": "0.055 ± 0.008", "unit": "s⁻¹"}, {"measurement": "Km", "setting": "Ureaplasma TK [4]; TFT 1 – 100 μM", "value": "9.9 ± 5.2", "unit": "µM"}, {"measurement": "kcat", "setting": "human TK2 [5]", "value": "0.026 ± 0.003", "unit": "s⁻¹"}, {"measurement": "Km", "setting": "human TK2 [5]; TFT 1 – 100 μM", "value": "8.8 ± 3.8", "unit": "µM"}, {"measurement": "kcat", "setting": "human TK1 [6]", "value": "0.043 ± 0.003", "unit": "s⁻¹"}, {"measurement": "Km", "setting": "human TK1 [6]; TFT 1 – 100 μM", "value": "5.9 ± 1.7", "unit": "µM"}]}
